Measurements published in US11261183B2, “Sulfoximine glycosidase inhibitors” (Asceneuron SA, priority 2016, dated 2022).

Tests used:
[1] = Protein binding in mice plasma using Rapid Equilibrium Dialysis; type: in vitro ADME, CD1 mice; conditions: 37° C.; for fraction unbound at 5 h, 1 µM: male, CD1, mouse, plasma, pH 7.4, CD1 mouse plasma; for % fraction unbound in mouse plasma: CD1 mouse plasma, 5 hours
Method: Example B04: Protein binding in mice plasma using Rapid Equilibrium Dialysis
• CD1 Mice Plasma: pooled male, K2-EDTA ([…]2, Bioreclammation, USA • Phosphate Buffered Saline (1×PBS), pH 7.4, 100 mM (Sigma, Cat No. P4417) • RED inserts (Pierce, Cat No. 9006, 8 kDa MWCO) • Sample Analysis: LC-MS/MS Methods • Preparation of DMSO Stock Solution
From 20 mM DMSO stock solutions of reference and test compounds, 1 mM DMSO intermediate working solutions are prepared. From 1 mM intermediate working solutions, 100 μM DMSO working solutions are prepared. • Sample Preparation Procedure:
Selected plasma is brought from −20° C. to 37° C. using water bath before its use. Test solution is prepared by adding the DMSO working solution of the reference or test compound (2 μL; 100 μM) to the selected plasma (198 μL). Spiked plasma (200 μl) is transferred to sample compartment of RED insert placed in the teflon plate. 350 μl of 1×PBS is added in the buffer compartment of RED insert. The teflon plate is covered with sealing mat and agitated at 37° C. for 5 hours at 500 RPM in a Thermomixer. After incubation time, an aliquot of plasma (50 μl) from sample compartment is mixed with blank 1×PBS (50 μl). Similarly, an aliquot of buffer (50 μl) from buffer compartment is mixed with blank plasma (50 μl). Quenching solution (200 μL, acetonitrile containing internal standard tolbutamide (0.5 μg/mL)) is added and the resulting solutions are mixed using a vortex mixer and centrifuged (Eppendorf 5415, 13792 g). Supernatants are analyzed using a Mass Spectrometer. The sample (supernatant fraction, 5 μL) is injected into the LC-MS/MS instrument. • Chromatographic Conditions: LC-MS/MS: API 4000 LC-MS/MS Software: Analyst Version 1.6.1 Column Phenomenex Synergy 30*4.6*5μ Column Oven: 40° C. Mode: ESI Positive Injection volume: 5 μl Flow Rate: […] Buffer: 0.1% Formic acid in Water Method: Isocratic Method/Gradient Composition: A) 0.1% Formic acid in Water B) 0.1% Formic acid in Methanol
After the concentration of free drug and total drug has been determined by LCMS/MS, percent plasma protein binding can be calculated as follows:
[formula] Following this protocol, % fraction unbound in plasma from different species can be also measured.

[2] = biological target: Human O-GlcNAcase (His-Tagged hOGA) (Homo sapiens (Human), UniProt O60502); test: Human O-GlcNAcase enzyme inhibition assay; type: biochemical; conditions: His-Tagged hOGA 20 nM, FL-GlcNAc 10 μM, 60 min, room temperature, pH 6.5; read-out: Enzymatic OGA IC50
Method: Example B01: Human O-GlcNAcase enzyme inhibition assay
5 μl of the appropriate concentration of a solution of inhibitor in McIlvaine's Buffer (pH 6.5) in 2% DMSO (for a dose response curve calculation) is added into each well of a 384-well plate (Greiner, 781900). Then, 20 nM of His-Tagged hOGA and 10 μM of FL-GlcNAc (Fluorescein mono-beta-D-(2-deoxy-2-N-acetyl) glucopyranoside; Marker Gene Technologies Inc, M1485) were added to the 384-well plate for a final volume of 20 μl. After incubation for 60 min at room temperature, the reaction was terminated by the addition of 10 μL of stop buffer (200 mM glycine, pH 10.75).

Sequence of Human O-GlcNAcase (His-Tagged hOGA) (O60502 whole entry): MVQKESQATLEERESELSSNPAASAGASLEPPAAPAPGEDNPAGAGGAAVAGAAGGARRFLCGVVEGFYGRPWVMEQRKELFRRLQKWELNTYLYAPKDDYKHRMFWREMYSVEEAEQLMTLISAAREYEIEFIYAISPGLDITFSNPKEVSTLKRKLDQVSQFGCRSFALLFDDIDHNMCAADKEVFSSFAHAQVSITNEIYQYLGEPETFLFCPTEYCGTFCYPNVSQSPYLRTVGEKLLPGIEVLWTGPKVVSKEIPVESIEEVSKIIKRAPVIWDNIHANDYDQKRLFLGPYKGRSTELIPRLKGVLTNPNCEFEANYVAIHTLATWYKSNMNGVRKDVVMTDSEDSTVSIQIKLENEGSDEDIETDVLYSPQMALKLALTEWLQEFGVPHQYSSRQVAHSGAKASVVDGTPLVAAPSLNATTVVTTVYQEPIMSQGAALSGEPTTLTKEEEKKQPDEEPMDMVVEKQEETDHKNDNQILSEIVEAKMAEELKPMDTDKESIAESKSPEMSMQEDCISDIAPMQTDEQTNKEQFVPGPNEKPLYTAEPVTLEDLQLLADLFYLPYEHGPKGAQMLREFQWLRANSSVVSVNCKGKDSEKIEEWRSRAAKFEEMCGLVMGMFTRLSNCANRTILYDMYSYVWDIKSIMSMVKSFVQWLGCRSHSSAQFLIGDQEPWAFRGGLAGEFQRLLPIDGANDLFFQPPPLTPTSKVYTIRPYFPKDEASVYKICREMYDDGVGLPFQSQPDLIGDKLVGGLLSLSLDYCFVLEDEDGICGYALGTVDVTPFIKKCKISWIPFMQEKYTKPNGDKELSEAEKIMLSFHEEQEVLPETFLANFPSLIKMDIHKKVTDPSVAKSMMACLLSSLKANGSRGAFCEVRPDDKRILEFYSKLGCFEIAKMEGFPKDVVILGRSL

CCS(=N)(=O)c1cnc(N2CCN(C(C)c3ccc4c(c3)OCC4)CC2)nc1 (racemic) [Example 3, (2-(4-(1-(2,3-dihydrobenzofuran-6-yl)ethyl)piperazin-1-yl)pyrimidin-5-yl)(ethyl)(imino)-λ^6-sulfanone]
fraction unbound at 5 h, 1 µM [1]: 0.25 | IC50 [2]: < 50 nM

Cc1nc2cc(C(C)N3CCN(c4ncc(S(C)(=O)=NC(C)C)cn4)CC3)ccc2s1 (racemic) [Example 49, (isopropylimino)(methyl)(2-(4-(1-(2-methylbenzo[d]thiazol-5-yl)ethyl)piperazin-1-yl)pyrimidin-5-yl)-λ^6-sulfanone]
fraction unbound at 5 h, 1 µM [1]: 0.0545 | IC50 [2]: 50 to 200 nM

CN=S(C)(=O)c1ccc(N2CCN(C(C)c3ccc4sc(C)nc4c3)CC2)nc1 (racemic) [Example 47, methyl(6-(4-(1-(2-methylbenzo[d]thiazol-5-yl)ethyl)piperazin-1-yl)pyridin-3-yl)(methylimino)-λ^6-sulfanone]
fraction unbound at 5 h, 1 µM [1]: 0.0959 | IC50 [2]: 50 to 200 nM

CC(c1ccc2c(c1)OCC2)N1CCN(c2ncc(N=S(C)(C)=O)cn2)CC1 (racemic) [Example 9]
fraction unbound at 5 h, 1 µM [1]: 0.376 | IC50 [2]: < 50 nM

CC(c1ccc2scnc2c1)N1CCN(c2ncc3c(n2)CCS(=N)(=O)C3)CC1 (racemic) [Example 59, 2-(4-(1-(benzo[d]thiazol-5-yl)ethyl)piperazin-1-yl)-6-imino-5,6,7,8-tetrahydro-6λ^4-thiopyrano[4,3-d]pyrimidine 6-oxide]
fraction unbound at 5 h, 1 µM [1]: 0.0848 | IC50 [2]: < 50 nM

CC(c1ccc2scnc2c1)N1CCN(c2ncc(N=S(C)(C)=O)cn2)CC1 (racemic) [Example 31, ((2-(4-(1-(benzo[d]thiazol-5-yl)ethyl)piperazin-1-yl)pyrimidin-5-yl)imino)dimethyl-λ^6-sulfanone]
fraction unbound at 5 h, 1 µM [1]: 0.229 | IC50 [2]: < 50 nM

COCCN=S(C)(=O)c1cnc(N2CCN(C(C)c3ccc4scnc4c3)CC2)nc1 (racemic) [Example 29, (2-(4-(1-(benzo[d]thiazol-5-yl)ethyl)piperazin-1-yl)pyrimidin-5-yl)((2-methoxyethyl)imino)(methyl)-λ^6-sulfanone]
fraction unbound at 5 h, 1 µM [1]: 0.286 | IC50 [2]: < 50 nM

CC(c1ccc2c(c1)OCC2)N1CCN(c2ccc(S(C)(=N)=O)cc2)CC1 (racemic) [Example 11, (4-(4-(1-(2,3-dihydrobenzofuran-6-yl)ethyl)piperazin-1-yl)phenyl)(imino)(methyl)-λ^6-sulfanone]
fraction unbound at 5 h, 1 µM [1]: 0.21 | IC50 [2]: < 50 nM

CC(c1ccc2c(c1)OCC2)N1CCN(c2ncc3c(n2)CCS(=N)(=O)C3)CC1 (racemic) [Example 61, 2-(4-(1-(2,3-dihydrobenzofuran-6-yl)ethyl)piperazin-1-yl)-6-imino-5,6,7,8-tetrahydro-6λ^4-thiopyrano[4,3-d]pyrimidine 6-oxide]
fraction unbound at 5 h, 1 µM [1]: 0.113 | IC50 [2]: < 50 nM

CCS(=N)(=O)c1cnc(N2CCN(C(C)c3ccc4scnc4c3)CC2)nc1 (racemic) [Example 23, (2-(4-(1-(benzo[d]thiazol-5-yl)ethyl)piperazin-1-yl)pyrimidin-5-yl)(ethyl)(imino)-λ^6-sulfanone]
fraction unbound at 5 h, 1 µM [1]: 0.215 | IC50 [2]: < 50 nM

CC(c1ccc2c(c1)OCC2)N1CCN(c2ncc(S(C)(=N)=O)cn2)CC1 (single isomer, unassigned) [Example 14]
% fraction unbound in mouse plasma [1]: 35.63% | IC50 [2]: < 50 nM

CC(c1ccc2scnc2c1)N1CCN(c2ncc(C(=O)N=S(C)(C)=O)cn2)CC1 (racemic) [Example 32, 2-(4-(1-(benzo[d]thiazol-5-yl)ethyl)piperazin-1-yl)-N-(dimethyl(oxo)-λ^6-sulfanylidene)pyrimidine-5-carboxamide]
fraction unbound at 5 h, 1 µM [1]: 0.0535 | IC50 [2]: < 50 nM

CC(c1ccc2scnc2c1)N1CCN(c2ncc(S(C)(=N)=O)cn2)CC1 (racemic) [Example 22, (2-(4-(1-(benzo[d]thiazol-5-yl)ethyl)piperazin-1-yl)pyrimidin-5-yl)(imino)(methyl)-λ^6-sulfanone]
fraction unbound at 5 h, 1 µM [1]: 0.248 | IC50 [2]: < 50 nM

CN=S(C)(=O)c1cnc(N2CCN(C(C)c3ccc4scnc4c3)CC2)nc1 (single isomer, unassigned) [Example 37]
fraction unbound at 5 h, 1 µM [1]: 0.278 | IC50 [2]: < 50 nM

CN=S(C)(=O)c1cnc(N2CCN(C(C)c3ccc4scnc4c3)CC2)nc1 (racemic) [Example 25, (2-(4-(1-(benzo[d]thiazol-5-yl)ethyl)piperazin-1-yl)pyrimidin-5-yl)(methyl)(methylimino)-λ^6-sulfanone]
fraction unbound at 5 h, 1 µM [1]: 0.211 | IC50 [2]: < 50 nM

Cc1nc2cc(C(C)N3CCN(c4ncc(S(C)(=N)=O)cn4)CC3)ccc2s1 (racemic) [Example 42, Imino(methyl)(2-(4-(1-(2-methylbenzo[d]thiazol-5-yl)ethyl)piperazin-1-yl)pyrimidin-5-yl)-λ^6-sulfanone]
fraction unbound at 5 h, 1 µM [1]: 0.101 | IC50 [2]: < 50 nM

CC(c1ccc2scnc2c1)N1CCN(c2ncc(S(C)(=N)=O)cn2)CC1 (single isomer, unassigned) [Example 36]
% fraction unbound in mouse plasma [1]: 45.51% | IC50 [2]: < 50 nM

CCN=S(C)(=O)c1cnc(N2CCN(C(C)c3ccc4sc(C)nc4c3)CC2)nc1 (racemic) [Example 48, (ethylimino)(methyl)(2-(4-(1-(2-methylbenzo[d]thiazol-5-yl)ethyl)piperazin-1-yl)pyrimidin-5-yl)-λ^6-sulfanone]
fraction unbound at 5 h, 1 µM [1]: 0.0534 | IC50 [2]: < 50 nM

Cc1nc2cc(C(C)N3CCN(c4ncc(S(C)(=N)=O)cn4)CC3)ccc2s1 (single isomer, unassigned) [Example 53]
% fraction unbound in mouse plasma [1]: 12.81% | IC50 [2]: < 50 nM

CC(c1ccc2c(c1)OCC2)N1CCN(c2ncc(S(C)(=N)=O)cn2)CC1 (racemic) [Example 1, (2-(4-(1-(2,3-dihydrobenzofuran-6-yl)ethyl)piperazin-1-yl)pyrimidin-5-yl)(imino)(methyl)λ^6-sulfanone]
fraction unbound at 5 h, 1 µM [1]: 0.393 | IC50 [2]: < 50 nM

CCCS(=N)(=O)c1cnc(N2CCN(C(C)c3ccc4c(c3)OCC4)CC2)nc1 (racemic) [Example 4, (2-(4-(1-(2,3-dihydrobenzofuran-6-yl)ethyl)piperazin-1-yl)pyrimidin-5-yl)(imino)(propyl)-λ^6-sulfanone]
fraction unbound at 5 h, 1 µM [1]: 0.142 | IC50 [2]: < 50 nM

CC(c1ccc2c(c1)OCC2)N1CCN(c2ccc(S(C)(=N)=O)cn2)CC1 (racemic) [Example 7, (6-(4-(1-(2,3-dihydrobenzofuran-6-yl)ethyl)piperazin-1-yl)pyridin-3-yl)(imino)(methyl)-Δ^6-sulfanone]
fraction unbound at 5 h, 1 µM [1]: 0.294 | IC50 [2]: < 50 nM

CC(c1ccc2c(c1)OCC2)N1CCN(c2ncc(S(C)(=N)=O)cn2)CC1 (single isomer, unassigned) [Example 12]
fraction unbound at 5 h, 1 µM [1]: 0.424 | IC50 [2]: < 50 nM

CC(c1ccc2scnc2c1)N1CCN(c2ncc(S(C)(=N)=O)cn2)CC1 (single isomer, unassigned) [Example 34, (2-(4-((S)-1-(benzo[d]thiazol-5-yl)ethyl)piperazin-1-yl)pyrimidin-5-yl)(imino)(methyl)-λ^6-sulfanone or (2-(4-((R)-1-(benzo[d]thiazol-5-yl)ethyl)piperazin-1-yl)pyrimidin-5-yl)(imino)(methyl)-λ^6-sulfanone]
fraction unbound at 5 h, 1 µM [1]: 0.257 | IC50 [2]: < 50 nM

CCCS(=N)(=O)c1cnc(N2CCN(C(C)c3ccc4scnc4c3)CC2)nc1 (racemic) [Example 24, (2-(4-(1-(benzo[d]thiazol-5-yl)ethyl)piperazin-1-yl)pyrimidin-5-yl)(imino)(propyl)-λ^6-sulfanone]
fraction unbound at 5 h, 1 µM [1]: 0.134 | IC50 [2]: < 50 nM

CCN=S(C)(=O)c1cnc(N2CCN(C(C)c3ccc4scnc4c3)CC2)nc1 (racemic) [Example 27]
fraction unbound at 5 h, 1 µM [1]: 0.186 | IC50 [2]: < 50 nM
